Laboratory results: patent US20220098197A1, “SALTS OF HETEROCYCLIC COMPOUND AND USE THEREOF” (priority 2019, published 2022)

Assays:
[1] = tested on: isolated peritoneal macrophages; experiment: RT-PCR analysis, LPS- or PGD2-stimulated peritoneal macrophages; assay type: cell-based, mice; settings: CT-NA 10 and 100 μM, P<0.05 or P<0.01
Protocol: The method was briefly described as follows. Thioglycolate (4%) was intraperitoneally injected to mice at a dose of 20 ml/kg of body weight for three consecutive days. 48 h after the last thioglycolate injection (on day 5), the peritoneal macrophages were isolated from the peritoneal lavage of the euthanized mice. The isolated peritoneal macrophages were added to a 12-well plate (4×10^5/well) and cultured at 37° C. Non-adherent cells were removed by gently washing three times with warm PBS. At this time, more than 90% of the cells were macrophages, which were cultured in DMEM/high glucose medium containing penicillin (100 U/ml), streptomycin (100 μg/ml) and 10% FBS at 37° C. After acclimation, serum-free DMEM/high glucose was added to a 12-well plate for 10-12 hrs, and then treated with different concentrations of LPS ([…]) for 24 hrs. Afterward, the supernatant of the peritoneal macrophages was collected to measure the protein level of PGD2 using ELISA kits according to the method of the instructions.
For ELISA and RT-PCR, RAW 264.7 macrophages were acclimated to two 12-well plates at 70-80% confluence. Thereafter, the medium in the 12-well plate was replaced with serum-free RPMI-1640 medium for 10-12 hrs and then exposed to CT-NA (10 and 100 μM) for 1 hour. […]

CS-induced ALI mice [2] = experiment: CS-induced lung injury model: inflammatory cells counting in BALF; assay type: in vivo, Balb/c mice; settings: intragastric before CS exposure, 7 days; CT-NA 10 and 30 mg/kg, Dex 1 mg/kg; BALF 24 hrs after last CS; p<0.01
Protocol: Specific pathogen-free (SPF) female Balb/c mice (22-28 g; aged 8 weeks) were purchased from Shanghai SIPPR-BK Experimental Animal Co., Ltd. […] Model preparation: The mice were randomly divided into 5 groups (12 mice in each group), which were the control group (the mice were exposed to fresh air), the saline group (the mice were exposed to cigarette smoke), dexamethasone (Dex) group (1 mg/kg) (the mice were exposed to cigarette smoke), CT-NA 10 mg/kg group and CT-NA 30 mg/kg group (the mice were exposed to cigarette smoke). According to the grouping, the mice were intragastrically administered saline, Dex and CT-NA, respectively. Thereafter, the mice were exposed to fresh air or cigarette smoke generated from 3R4F research-grade cigarettes (containing about 600 mg TPM/m^3 and 29.9 mg nicotine/m^3) in a cuboid plastic box (65×50x×45 cm). Ten cigarettes were burned every day for seven days. […] 24 hrs after the last exposure to the cigarette smoke, the partial pressure of oxygen (PO2) of all mice was measured by the Moor VMS-OXY™ measuring instrument, which was used to measure the oxygenated/deoxygenated hemoglobin concentration and oxygen saturation (percentage) in the microcirculation at the wavelength range of 500 to 650 nm. […] The supernatant was aliquoted and stored at −80° C. until the cytokine or albumin concentration was measured. […]

CS-induced ALI mice [3] = experiment: CS-induced lung injury model: lung MPO assay; assay type: in vivo, Balb/c mice; settings: CS exposure; CT-NA 10 and 30 mg/kg, Dex 1 mg/kg; p<0.01
Protocol: Model preparation: The mice were randomly divided into 5 groups (12 mice in each group), which were the control group (the mice were exposed to fresh air), the saline group (the mice were exposed to cigarette smoke), dexamethasone (Dex) group (1 mg/kg) (the mice were exposed to cigarette smoke), CT-NA 10 mg/kg group and CT-NA 30 mg/kg group (the mice were exposed to cigarette smoke). According to the grouping, the mice were intragastrically administered saline, Dex and CT-NA, respectively. Thereafter, the mice were exposed to fresh air or cigarette smoke generated from 3R4F research-grade cigarettes (containing about 600 mg TPM/m^3 and 29.9 mg nicotine/m^3) in a cuboid plastic box (65×50x×45 cm). Ten cigarettes were burned every day for seven days. After one cigarette was burned, the next cigarette was ignited. […] The lung tissue was collected for determination of lung weight coefficient, histological examination and MPO activity.
In order to evaluate MPO activity, 50 mg strips of left lung tissue were washed, and then homogenized with normal saline. MPO activity was determined by measuring the changes in absorbance at 460 nm according to the detection standard by using MPO assay kit.

With `CN([C@@H]1CCc2c(CC(=O)[O-])c3cccnc3n2C1)S(=O)(=O)c1ccc(F)cc1.[Na+]` [Sodium salt hydrate] the “mRNA expressions of IL-1β, TNF-α, IL-6 and KC, LPS-stimulated” value ([1]; LPS, dose-dependent) was “reduced”, the “mRNA expressions of IL-1β, TNF-α, IL-6 and KC, PGD2-stimulated” value ([1]; PGD2, dose-dependent) was “reduced” and the “number of total cells, macrophages and neutrophils in BALF” value (CS-induced ALI mice [2]) was “significantly reduced”. The “MPO activity of lung tissues” value (CS-induced ALI mice [3]) was “attenuated”.
